Data set [1] has as its system TKL1,2 deficient strain harboring the XDH encoding gene from P. stipitis on a multi-copy plasmid (H1057). The conditions noted are these: for Polyols from glucose consumed in %: 25 μM IA. The procedure: TKL1,2 deficient strain H1055 carrying the pAOS67 multi-copy plasmid harboring the XDH encoding gene from P. stipitis (H1057) was cultivated in the presence of 25 μM IA (Fluka Chemie AG, Switzerland). The growth medium was SCD lacking histidine for plasmid selection and 7.65 g/l KNO3. Samples were withdrawn at the indicated time points, the OD600 measured, cells removed by centrifugation, and the growth medium samples were assayed for polyols by the Boehringer Mannheim D-sorbitol/xylitol kit and for glucose by the Boehringer Mannheim GOD-Perid kit.

Another data set deals with T1, DOG1 (Saccharomyces cerevisiae, UniProt P38774).
T1 construct: expressed in transfected cells; host or cells: S. cerevisiae H1104 (W303-1B) transformed with plasmid B1020 (YEplac195, ADH1 promoter-DOG1-ADH1 terminator) = strain H1514; crude cell extract
T1 sequence (P38774 1-246): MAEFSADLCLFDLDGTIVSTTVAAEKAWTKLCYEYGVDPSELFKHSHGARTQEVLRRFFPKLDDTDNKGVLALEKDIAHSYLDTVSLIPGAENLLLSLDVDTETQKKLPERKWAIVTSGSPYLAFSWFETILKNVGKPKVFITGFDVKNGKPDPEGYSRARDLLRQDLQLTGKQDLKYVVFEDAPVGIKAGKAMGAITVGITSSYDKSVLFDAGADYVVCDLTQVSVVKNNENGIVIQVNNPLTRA
As to the kind of experiment: Specificity of DOG1 towards sugar phosphates in yeast cell extracts (phosphate release). Type of data set: biochemical, S. cerevisiae. Particulars: 20 mM substrate; cell extract of H1514; relative to 2-deoxyglucose-6-P as 100%. How it is done:
The specificity of DOG1 towards xylulose-5-P, ribulose-5-P, ribose-5-P and 2-deoxyglucose-6-P was determined using 20 mM substrate concentrations. Yeast cell extracts were prepared as described in example 15, except that 50 mM imidazole-HCl, 10 mM MgCl2 buffer, pH 6.0 was used. 10 μl of extract and 210 μl of substrate (20 mM) in the same buffer was incubated for 30 min, 30° C. The reaction was stopped with final 2% of TCA and the phosphate released was measured using ammonium molybdate (15 mM), zinc acetate (100 mM), pH 5.0 as the reagent. The formation of molybdenum blue was measured at 350 nm, and quantified by phosphate standards (Sanz, P. et al., Yeast 10:1195–1202 (1994); Bencini, D. A. et al., Anal. Biochem. 132:254–258 (1983)).

A short description of data set [2]: Stereospecificity of D-xylulose 5-phosphate reduction, products dephosphorylated and analyzed by HPLC. Type of data set: biochemical. The conditions noted are these: 10 mM xylulose 5-phosphate, 10 mM NADH, pH 7.0, 37° C. How it is done:
The stereospecificity of xylulose-phosphate reduction by the B. halodurans XPDH was verified by the following procedure. The reaction between D-xylulose 5-phosphate and NADH was conducted at 37° C. for several hours under the following conditions: 100 mM Tris-HC buffer, pH 7.0, 10 mM xylulose 5-phosphate, 10 mM NADH, […] the enzyme lysate. The reaction products were dephosphorylated with alkaline phosphatase and analyzed by HPLC. […] It should be noted that among the highest-scoring four homologues of the L. rhamnosus XPDH, the enzyme from B. holodurans is the least homologous. This can be interpreted as an indication that the other three homologues (SEQ ID NO:51, 52 and 53) are most probably also xylitol-phosphate dehydrogenases.
The stereospecificity of D-xylulose 5-phosphate reduction by the E. avium arabitol-phosphate dehydrogenase was verified by the following procedure. The reaction between D-xylulose 5-phosphate and NADH was conducted at 37° C. for several hours under the following conditions: 100 mM Tris-HCl buffer, pH 7.0, 10 mM xylulose 5-phosphate, 10 mM NADH, 1U of the enzyme. The reaction products were dephosphorylated with alkaline phosphatase and analyzed by HPLC. […] There are no other arabitol-phosphate dehydrogenases described in the art.
Both arabitol-phosphate dehydrogenase genes were expressed using the same tools and methods as those used for the expression of xylitol-phosphate dehydrogenases (Example 26). Briefly, the coding regions of the two arabitol-phosphate dehydrogenase genes were amplified using the chromosomal DNA of the microorganism from which the enzyme was isolated and the appropriate PCR primers. In the case of E. avium the primers were oAPDH 51 […] SEQ ID NO: 71) and the anti-sense primer oAPDH 31 […]) SEQ ID NO: 72. For B. halodurans, the sense primer was oBHDH 5 ([…], SEQ ID NO: 73) and the anti-sense primer was oBHDH 3 ([…], SEQ ID NO: 74). […] The stereospecificity of D-xylulose 5-phosphate reduction by the previously unknown enzyme from B. halodurans was determined as described in Example 30.

Data set [3] is described as follows: Xylulose 5-phosphate reductase (XPDH/APDH) activity assay with NADH. It counts as biochemical. The conditions noted are these: cell extract of transformed B. subtilis BD170; xylulose 5-phosphate usually 5 mM. How it is done:
The strain BD 170 [pGTK24(MXD2)] as well as untransformed strain BD 170 was grown overnight on either LB or LB, containing 10% glucose, cell extracts were prepared and the XDH activity measured. The assay conditions for measuring XDH activity were: 30° C., 50 mM Tris-HCI, pH 7.0, 0.2 mM NADH and 10 mM D-xylulose. Changes of absorption at 340 nm were recorded; one unit of activity was defined as the amount of enzyme that catalyzed the reduction of one […] of substrate per minute under the conditions of assay (assuming the differential absorption coefficient NADH/NAD^+ to be equal to […]). The following levels of XDH activity were measured in the strain BD170 [pGTK24(MXD2)] grown on the two media: LB—0.5 U/mgproteins, LB-glucose 0.05–0.15 U/mgprotein. Thus, glucose appeared to repress the activity of the aldolase promoter 3–10 fold. No XDH activity could be detected in the strain BD170 grown on either of the two media.
B. subtilis strain BD170 was transformed with pGTK74(LRXPDH) and pGTK74(BHDH2). The transformants were grown overnight in LB containing 25 mg/liter kanamycin, cell extract were prepared by sonication and the activity of XPDH activity was measured. The conditions for measuring the XPDH activity were similar to those used for measuring the xylitol dehydrogenase activity except that xylulose 5-phosphate was used as the substrate (usually at 5 mM concentration) instead of xylulose. The activities were approximately 0.3 U/mg protein for the XPDH from L. rhamnosus and about 0.5 U/mg protein for B. halodurans enzyme.
Enterococcus avium ATCC 35655 was cultivated at 30° C. in 5 liters of a medium containing: peptone—10 g/l, yeast extract—5 g/l, beef extract 10 g/l, K2HPO4 2 g/l, NaCl—5 g/l, MgSO4—0.02 g/l, MnCl2—0.05 g/l, ammonium citrate 2 g/l, Tween 20—1.1 ml/l, xylitol—20g/l, pH 6.5. […]

Where two headings read alike, the source gives them in different places.

Regarding `O=C(O)CI` [iodacetate, iodoacetate], the “Polyols from glucose consumed in %” value was 0.45% in data set [1] (28 h); 0.74% in data set [1] (45 h); 0.57% in data set [1] (52 h); 0.72% in data set [1] (69 h); 0.87% in data set [1] (77 h); 0.93% in data set [1] (93 h). The “Polyols from glucose consumed in %” value in data set [1] (100 h) was found to be 1.13%. Further, the “glucose consumed metabolised to polyols (xylitol+part of ribitol)” value in data set [1] (in the presence of iodoacetate) is 1.2%. Besides, the “increase in polyol production” value in data set [1] (in the presence of iodoacetate vs without) is listed as “about 30%”.

As for `O=C(CO)[C@@H](O)[C@H](O)COP(=O)(O)O` [xylulose-5-P, Xylulose-5-phosphate], the “Relative activity (20 mM)” value at DOG1 worked out at 15%.

B1: enzyme from B. halodurans: D-arabitol-phosphate dehydrogenase from B. halodurans, SEQ ID NO:70, expressed from pGTK74(BHDH) (protein)
chain: MKALVKTQHGTGHFAVQEKPEPTPGKHQVKIKVKYTGVCGSDIHTYEGHYPVAAPVTLGHEFSGEIVELGEGVTGFNVGDRVTSETTYSICGKCSYCTSGDYNLCSHRKGLGNQQDGSFAKYVIARQESLHHLPAGVDDRSAAMTEPLACTHHAIAKTSINKGDLVVVTGPGPIGLLAAQVAKSHGGTVIITGLSNDQVRLKKAKEVGIDYAIDTQEVDIKELVSELTDGYGADVVLECSGAVPAAKQGIDLLRKKGQYAQVGLFAQPEIQFNFEKIIQKEISVVGSRSQKPADWEPALSLLNEKKVNAKTLVTHEYTISEWDKAYHAIKSGEAIKVLLTPID
modifications: Bacillus halodurans (deduced sequence)
For the molecule B1, the “products found in the reaction mixture / stereospecificity” value in data set [2] was “this enzyme is indeed a D-arabitol-phosphate dehydrogenase”.

B2: B. halodurans enzyme: xylitol-phosphate dehydrogenase from B. halodurans, SEQ ID NO:50, expressed from pGTK74(BHDH2) (protein)
chain: MKALNLYGIQDLRFEETPAPSIEHDDDIIIKVKAVGICGSDLSRYKKLGPYVPGMTFGHEFAGEVVKIGRSVTGFSIGDRVAACPTYTCGQCRYCQLGEPTRCERLSVIGARHPGAYAEYVKLPAKHVIPLPNVVNYDEAALIEPASVVAHGFYRTNIKPGASVAIMGVGSIGLLAVQWAKIFGATTVFAIDIDEQKLNVANQLGADVLISSLQRPAHKQILEYTNGIGVDVAVESAGTPSTSAQVFALPKKGGEVVFLGIPYADVQIERFYFEKIVRNELHVYGSWNALSSPFPGKEWATTIHYMSSGQLNVAPMISYRLPLAKGPETFQQIAKGELKPTKVLFYPEKLSERK
modifications: Bacillus halodurans
Take B2: the “products found in the reaction mixture / stereospecificity” value in data set [2] is “Only xylitol and xylulose (corresponding to the unreacted xylulose 5-phosphate) but no arabitol were found”. Further, in data set [3], the XPDH activity entry was “about 0.5 U/mg protein”.

B3: XPDH from L. rhamnosus: xylitol-phosphate dehydrogenase from Lactobacillus rhamnosus, SEQ ID NO:49 (protein, listed as Lactobacillus rhamnosus)
chain: MKASMLEDLNKFSVKEIDIPSPKKDEVVVKVMAAGTCGSDSHKMISGWKYGYPAVMGHEFSGIVTQLGENVSNVSVGQHVAVAPFIPCFKCHYCQIGLFQMCENYSMLGQQKFGGFEQYVSVPARNVLDIGKMSFEEGALIEPMAVAAHAVMGIKPELGDTVAVFGLGTVGDLVVRLLISSGATNVIGIDIDDQKLEKGLDEGCTHVINSAKESLEEKIMEYTDGLGVDISMECAGSKITEEQTLLVTKRRGKVGFVGIAYSDVLLHQKAFENIFRHELTVTGFWNSYSAPFPGREWTNSIQLVNRGRIKIKDLITHRFELEDMQKAFNMITTRSESFNKVMFFPNGIN
For the molecule B3, in data set [3], the XPDH activity result is given as “approximately 0.3 U/mg protein”.

The values above are taken from patent US7226761B2, “Manufacture of five-carbon sugars and sugar alcohols” (Danisco Sweeteners Oy, priority 1992, dated 2007).
